MIC and EC50 data for eleven compounds are collected here from patent publication US20240270762A1, “PENICILLIN-BINDING PROTEIN INHIBITORS” (priority 2021, published 2024).

≈ marks a conversion by molar mass, not a printed value. Bounds are passed on as bounds.

The subject of one experiment is E. coli AG100A. Description: Broth microdilution MIC in CAMHB. It counts as cell-based. The note with it: Escherichia coli, read-out: MIC E. coli AG100A. For orientation: In broth dilution the organism is exposed to a series of concentrations in liquid medium.
The next experiment has as its system E. coli ATCC 25922. The experiment in a line: microbe, parasite or virus in culture. In kind it is cell-based. Particulars: Escherichia coli, ATCC25922, read-out: MIC E. coli 25922.
For a further experiment, the system named is E. coli D22. The experiment in a line: microbe, parasite or virus in culture. In kind it is cell-based. Particulars: Escherichia coli, D22, read-out: MIC E. coli D22.
For the next experiment, the system named is K. pneumoniae SI-117. Description: microbe, parasite or virus in culture. The note with it: Klebsiella pneumoniae, SI117, read-out: MIC K. pneumoniae SI-117. In kind it is cell-based.
A further experiment relates to P. aeruginosa ATCC 35151. Description: microbe, parasite or virus in culture. It counts as cell-based. Particulars: Pseudomonas aeruginosa, ATCC35151, read-out: MIC P. aeruginosa ATCC 35151.
For a further experiment, the system named is K. pneumoniae 848844. The experiment in a line: microbe, parasite or virus in culture. In kind it is cell-based. The note with it: Klebsiella pneumoniae, 848844, read-out: MIC K. pneumoniae 848844.
Another experiment concerns A. baumannii ATCC 19606. The experiment in a line: microbe, parasite or virus in culture. It counts as cell-based. Particulars: Acinetobacter baumannii, ATCC19606, read-out: MIC, A. baumannii ATCC 19606.
The subject of another experiment is E. coli 901C. The experiment in a line: microbe, parasite or virus in culture. It counts as cell-based. Particulars: Escherichia coli, read-out: MIC E. coli 901C.
In experiment [1] the test system is P. aeruginosa (ΔmexAB-oprM). Description: Broth microdilution MIC in CAMHB. It counts as cell-based. Particulars: Pseudomonas aeruginosa; read-out: MIC P. aeruginosa ΔmexAB-oprM.
In another experiment the test system is E. coli AG100. Description: microbe, parasite or virus in culture. In kind it is cell-based. The note with it: Escherichia coli, AG100, read-out: MIC E. coli AG100.
The subject of another experiment is K. pneumoniae UMM. The experiment in a line: microbe, parasite or virus in culture. In kind it is cell-based. The note with it: Klebsiella pneumoniae, read-out: MIC K. pneumoniae UMM.
Another experiment deals with P. aeruginosa ATCC 27853. The experiment in a line: microbe, parasite or virus in culture. The note with it: Pseudomonas aeruginosa, ATCC27853, read-out: MIC P. aeruginosa ATCC 27853. In kind it is cell-based.
In a further experiment the target is T1, A. baumannii PBP1a (Acinetobacter baumannii, UniProt A0ABX6CK30).
T1 sequence (A0ABX6CK30 1-851): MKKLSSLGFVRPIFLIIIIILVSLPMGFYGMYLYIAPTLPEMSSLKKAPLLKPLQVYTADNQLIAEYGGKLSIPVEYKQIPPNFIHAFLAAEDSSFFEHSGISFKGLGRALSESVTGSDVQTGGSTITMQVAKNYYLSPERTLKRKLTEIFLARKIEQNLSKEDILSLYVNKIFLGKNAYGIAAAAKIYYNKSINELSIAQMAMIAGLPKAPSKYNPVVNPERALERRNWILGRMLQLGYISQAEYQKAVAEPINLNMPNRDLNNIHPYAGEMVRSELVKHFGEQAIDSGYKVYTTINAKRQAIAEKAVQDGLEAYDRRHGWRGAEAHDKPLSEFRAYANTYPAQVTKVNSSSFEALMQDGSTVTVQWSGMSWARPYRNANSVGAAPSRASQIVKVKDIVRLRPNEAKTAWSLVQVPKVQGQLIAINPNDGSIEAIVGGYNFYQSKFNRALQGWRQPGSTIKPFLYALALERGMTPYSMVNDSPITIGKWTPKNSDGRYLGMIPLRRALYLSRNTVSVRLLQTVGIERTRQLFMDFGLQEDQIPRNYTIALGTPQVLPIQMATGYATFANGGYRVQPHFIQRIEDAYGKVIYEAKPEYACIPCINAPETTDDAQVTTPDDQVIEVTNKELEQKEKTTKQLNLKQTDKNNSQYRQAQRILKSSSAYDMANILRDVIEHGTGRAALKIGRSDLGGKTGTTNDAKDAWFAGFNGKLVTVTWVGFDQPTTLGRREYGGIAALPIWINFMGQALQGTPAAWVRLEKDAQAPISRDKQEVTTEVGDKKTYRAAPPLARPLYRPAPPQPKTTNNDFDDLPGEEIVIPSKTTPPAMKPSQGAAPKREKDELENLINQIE
The experiment in a line: Bocillin-FL competition binding via gel filtration, A. baumannii PBP1a. Particulars: competition binding assay using Bocillin-FL via gel filtration; read-out: A. baumannii PBP1a Potency. Put shortly: (§1)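 Enzyme pre-incubated with increasing inhibitor concentrations, then Bocillin-FL added for 15 min further incubation. Bocillin-FL-bound PBP separated by gel filtration and fluorescence read. EC50 from fitting fraction PBP bound vs inhibitor concentration to a Hill-type equation (ymin, ymax, n).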

A further experiment addresses A. baumannii PBP2 (Acinetobacter baumannii, UniProt D0C8Z9). The experiment in a line: Bocillin-FL competition binding via gel filtration, A. baumannii PBP2. Put shortly:
as §1

Sequence of A. baumannii PBP2 (D0C8Z9 whole entry): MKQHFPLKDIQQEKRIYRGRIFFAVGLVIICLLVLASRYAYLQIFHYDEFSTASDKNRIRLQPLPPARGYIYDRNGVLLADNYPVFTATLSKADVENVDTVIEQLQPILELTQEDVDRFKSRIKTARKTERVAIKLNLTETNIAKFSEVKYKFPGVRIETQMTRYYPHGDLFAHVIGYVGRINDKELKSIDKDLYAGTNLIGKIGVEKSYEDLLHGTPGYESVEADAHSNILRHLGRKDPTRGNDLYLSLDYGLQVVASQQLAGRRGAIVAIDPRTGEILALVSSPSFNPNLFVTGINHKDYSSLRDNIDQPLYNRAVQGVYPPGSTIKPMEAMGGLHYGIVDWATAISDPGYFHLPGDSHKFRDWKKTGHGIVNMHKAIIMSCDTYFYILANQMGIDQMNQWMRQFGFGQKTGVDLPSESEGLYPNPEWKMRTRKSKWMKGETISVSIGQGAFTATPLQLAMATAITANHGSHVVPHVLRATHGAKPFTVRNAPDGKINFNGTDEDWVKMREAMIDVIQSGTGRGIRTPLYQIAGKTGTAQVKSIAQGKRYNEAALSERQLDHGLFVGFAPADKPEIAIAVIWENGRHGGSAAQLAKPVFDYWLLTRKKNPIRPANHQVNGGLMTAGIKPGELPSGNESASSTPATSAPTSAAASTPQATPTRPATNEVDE

Take `O=C(O)c1cccc2c1OB(O)[C@@H](NC(=O)[C@@H](NC(=O)c1cnc3n(c1=O)CCS3)c1ccc(P(=O)(O)O)cc1)C2` (single isomer, unassigned) [Example 196]: the MIC with E. coli AG100A was more than 128 µg/mL; in the experiment with E. coli ATCC 25922, more than 128 µg/mL; with E. coli D22, more than 128 µg/mL; in the experiment with K. pneumoniae SI-117 it was more than 128 µg/mL; with P. aeruginosa ATCC 35151 it was 8 to 16 µg/mL (≈ 13.3 to 26.7 µM); with K. pneumoniae 848844 it was more than 128 µg/mL. Further, the MIC in the experiment on A. baumannii ATCC 19606 is more than 128 µg/mL; with E. coli 901C, 32 to 64 µg/mL (≈ 53.3 to 107 µM); in experiment [1], more than 128 µg/mL; in the experiment on E. coli AG100 it was more than 128 µg/mL; in the experiment with K. pneumoniae UMM, more than 128 µg/mL; in the experiment with P. aeruginosa ATCC 27853, more than 128 µg/mL.
In the case of `O=C(O)c1cccc2c1OB(O)[C@@H](NC(=O)[C@H](NC(=O)c1cnc3n(c1=O)CCS3)c1ccc(P(=O)(O)O)cc1)C2` (single isomer, unassigned) [Example 197], the MIC is more than 128 µg/mL in the experiment with E. coli AG100A; more than 128 µg/mL in the experiment with E. coli ATCC 25922; 8 to 16 µg/mL (≈ 13.3 to 26.7 µM) in the experiment with E. coli D22; more than 128 µg/mL in the experiment on K. pneumoniae SI-117; less than 1 µg/mL in the experiment with P. aeruginosa ATCC 35151; more than 128 µg/mL in the experiment with K. pneumoniae 848844. For the same compound, the MIC in the experiment on A. baumannii ATCC 19606 was more than 128 µg/mL; in the experiment with E. coli 901C, 2 to 4 µg/mL (≈ 3.33 to 6.66 µM); in experiment [1] it was 32 to 64 µg/mL (≈ 53.3 to 107 µM); in the experiment on E. coli AG100 it was more than 128 µg/mL; in the experiment with K. pneumoniae UMM, more than 128 µg/mL; in the experiment with P. aeruginosa ATCC 27853 it was more than 128 µg/mL.
In the case of `O=C(NCCCN1CCN(C(=O)N[C@@H](C(=O)N[C@H]2Cc3ccc(F)c(C(=O)O)c3OB2O)c2cc(F)c(O)c(O)c2Cl)C1=O)c1ccccc1` [Example 253, (R)-3-((R)-2-(3-(3-benzamidopropyl)-2-oxoimidazolidine-1-carboxamido)-2-(2-chloro-5-fluoro-3,4-dihydroxyphenyl)acetamido)-7-fluoro-2-hydroxy-3,4-dihydro-2H-benzo[e][1,2]oxaborinine-8-carboxylic acid], the EC50 at A. baumannii PBP1a is 10 to 50 µM; on A. baumannii PBP2 it was less than 10 µM.
Take `O=C(NCCCN1CCN(C(=O)N[C@@H](C(=O)N[C@H]2Cc3ccc(F)c(C(=O)O)c3OB2O)c2cc(F)c(O)c(O)c2Cl)C1=O)c1cccc(O)c1` [Example 255, (R)-3-((R)-2-(2-chloro-5-fluoro-3,4-dihydroxyphenyl)-2-(3-(3-(3-hydroxybenzamido)propyl)-2-oxoimidazolidine-1-carboxamido)acetamido)-7-fluoro-2-hydroxy-3,4-dihydro-2H-benzo[e][1,2]oxaborinine-8-carboxylic acid]: the EC50 at A. baumannii PBP1a and at A. baumannii PBP2 was 10 to 50 µM each time.
Consider `O=C(NCCCN1CCN(C(=O)N[C@@H](C(=O)N[C@H]2Cc3ccc(F)c(C(=O)O)c3OB2O)c2cc(F)c(O)c(O)c2Cl)C1=O)Nc1cccc(O)c1` [Example 258, (R)-3-((R)-2-(2-chloro-5-fluoro-3,4-dihydroxyphenyl)-2-(3-(3-(3-(3-hydroxyphenyl)ureido)propyl)-2-oxoimidazolidine-1-carboxamido)acetamido)-7-fluoro-2-hydroxy-3,4-dihydro-2H-benzo[e][1,2]oxaborinine-8-carboxylic acid], for which the EC50 at A. baumannii PBP1a is 10 to 50 µM; at A. baumannii PBP2, less than 10 µM.
`O=C(NCCCN1CCN(C(=O)NC(C(=O)N[C@H]2Cc3ccc(F)c(C(=O)O)c3OB2O)c2cc(F)c(O)c(O)c2Cl)C1=O)Nc1cccnc1` (stereo partly drawn) [Example 259, (3R)-3-(2-(2-chloro-5-fluoro-3,4-dihydroxyphenyl)-2-(2-oxo-3-(3-(3-(pyridin-3-yl)ureido)propyl)imidazolidine-1-carboxamido)acetamido)-7-fluoro-2-hydroxy-3,4-dihydro-2H-benzo[e][1,2]oxaborinine-8-carboxylic acid]: the EC50 was 10 to 50 µM at A. baumannii PBP1a and less than 10 µM on A. baumannii PBP2.
`O=C(NCCS(=O)(=O)N1CCN(C(=O)NC(C(=O)N[C@H]2Cc3ccc(F)c(C(=O)O)c3OB2O)c2cc(F)c(O)c(O)c2Cl)C1=O)c1cccc(O)c1` (stereo partly drawn) [Example 261, (3R)-3-(2-(2-chloro-5-fluoro-3,4-dihydroxyphenyl)-2-(3-((2-(3-hydroxybenzamido)ethyl)sulfonyl)-2-oxoimidazolidine-1-carboxamido)acetamido)-7-fluoro-2-hydroxy-3,4-dihydro-2H-benzo[e][1,2]oxaborinine-8-carboxylic acid]: the EC50 on A. baumannii PBP1a and on A. baumannii PBP2 was 10 to 50 µM in each case.
Consider `O=C(NCCS(=O)(=O)N1CCN(C(=O)NC(C(=O)N[C@H]2Cc3ccc(F)c(C(=O)O)c3OB2O)c2cc(F)c(O)c(O)c2Cl)C1=O)Nc1cccc(O)c1` (stereo partly drawn) [Example 266, (3R)-3-(2-(2-chloro-5-fluoro-3,4-dihydroxyphenyl)-2-(3-((2-(3-(3-hydroxyphenyl)ureido)ethyl)sulfonyl)-2-oxoimidazolidine-1-carboxamido)acetamido)-7-fluoro-2-hydroxy-3,4-dihydro-2H-benzo[e][1,2]oxaborinine-8-carboxylic acid], for which the values for the EC50 at A. baumannii PBP1a and at A. baumannii PBP2 were less than 10 µM and 10 to 50 µM, respectively.
Regarding `O=C(NCCCS(=O)(=O)N1CCN(C(=O)NC(C(=O)N[C@H]2Cc3ccc(F)c(C(=O)O)c3OB2O)c2cc(F)c(O)c(O)c2Cl)C1=O)c1ccccc1` (stereo partly drawn) [Example 268, (3R)-3-(2-(3-((3-benzamidopropyl)sulfonyl)-2-oxoimidazolidine-1-carboxamido)-2-(2-chloro-5-fluoro-3,4-dihydroxyphenyl)acetamido)-7-fluoro-2-hydroxy-3,4-dihydro-2H-benzo[e][1,2]oxaborinine-8-carboxylic acid], the EC50 at A. baumannii PBP1a and on A. baumannii PBP2 was 10 to 50 µM each time.
`O=C(NCCCS(=O)(=O)N1CCN(C(=O)NC(C(=O)N[C@H]2Cc3ccc(F)c(C(=O)O)c3OB2O)c2cc(F)c(O)c(O)c2Cl)C1=O)c1ccc(O)cc1` (stereo partly drawn) [Example 269, (3R)-3-(2-(2-chloro-5-fluoro-3,4-dihydroxyphenyl)-2-(3-((3-(4-hydroxybenzamido)propyl)sulfonyl)-2-oxoimidazolidine-1-carboxamido)acetamido)-7-fluoro-2-hydroxy-3,4-dihydro-2H-benzo[e][1,2]oxaborinine-8-carboxylic acid]: the EC50 at A. baumannii PBP1a was less than 10 µM; at A. baumannii PBP2 it was 10 to 50 µM.
Regarding `O=C(NCCCS(=O)(=O)N1CCN(C(=O)N[C@@H](C(=O)N[C@H]2Cc3ccc(F)c(C(=O)O)c3OB2O)c2cc(F)c(O)c(O)c2Cl)C1=O)c1cccc(O)c1` [Example 271, (R)-3-((R)-2-(2-chloro-5-fluoro-3,4-dihydroxyphenyl)-2-(3-((3-(3-hydroxybenzamido)propyl)sulfonyl)-2-oxoimidazolidine-1-carboxamido)acetamido)-7-fluoro-2-hydroxy-3,4-dihydro-2H-benzo[e][1,2]oxaborinine-8-carboxylic acid], the EC50 on A. baumannii PBP1a and at A. baumannii PBP2 was less than 10 µM in each case.
